Source: PubChem BioAssay (NCI)
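96-well plates; 48 h exposure; 5 concentrations. Endpoints by linear interpolation between flanking doses. Not reached: highest tested concentration assigned. Abbreviation: GI50, concentration required for 50% inhibition of growth. TGI marks complete inhibition of growth.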

The compounds below were run on NCI/ADR-RES ovarian (assay: growth of human tumour cells (NCI), 48 h).

`COc1cc2nc(-c3ccc(Cl)cc3)cc(OCCCN3CCOCC3)c2cc1OC` showed a GI50 of 1.15 µM.

First: COc1cc2nc(-c3ccc(Cl)cc3)cc(OCCCN3CCOCC3)c2cc1OC
Second: CN(C)CCNC(=O)c1cccc2c1Nc1ccccc1S2
The TGI of the first is higher: over 100 µM for the first, 32.6 µM for the second.

Compared with `CO/N=C1\CC(NC(=O)C(F)(F)F)c2ccsc21` (configuration not stated), `COC(=O)/C=C(\C)CC/C=C(\C)CCC1OC1(C)C` (configuration not stated) is lower in TGI: over 100 µM for the first, 28 µM for the second.

The compounds below were run on OVCAR-8 ovarian (assay: growth of human tumour cells (NCI), 48 h).

`COc1ccc2ccc3oc(=O)c(C)cc3c2c1` and `COc1ccc(C2Oc3ccc(Cl)cc3C=C2[N+](=O)[O-])cc1` (configuration not stated) cannot be ordered by TGI: over 100 µM for the first, over 100 µM for the second.

`CN(C)c1nc(Oc2nc(N(C)C)nc(N(C)C)n2)nc(N(C)C)n1` and `Cc1ccccc1-c1nc2c(N)nc(N)nc2nc1N` cannot be ordered by TGI: over 100 µM for the first, over 100 µM for the second.

`CCCCCCCC(=O)OCC(COC(=O)C(C)(C)C)OC(=O)Cc1ccccc1` (configuration not stated) and `CCOC(=O)C1C(c2ccc(Cl)cc2Cl)NC(c2ccc(C)cc2)C(C(=O)OC)S1(=O)=O` (configuration not stated) cannot be ordered by TGI: over 100 µM for the first, over 100 µM for the second.

`Cc1nnc2n(c1=O)CCCN2C` and `CC1CC(N2CCOCC2)=Nc2ccccc2N1C` (configuration not stated) cannot be ordered by TGI: over 100 µM for the first, over 100 µM for the second.

`Nc1ncnc2c1nnn2C1C=CC(CP(=O)(O)O)C1` (configuration not stated) and `O=c1[nH]c(NCc2ccncc2)nc2nc[nH]c12` cannot be ordered by TGI: over 100 µM for the first, over 100 µM for the second.

First: CN(C)CCn1c(=O)c2ccc(NCCCN(C)CCCNc3ccc4c(=O)n(CCN(C)C)c(=O)n5c6ccc(O)cc6c(=O)c3c45)c3c(=O)c4cc(O)ccc4n(c1=O)c23
Second: CN(C)C(=O)C(F)(F)C(c1ccc(F)cc1)C1C(=O)N(C)C(=O)N(C)C1=O (configuration not stated)
The TGI of the first is lower: 0.347 µM for the first, over 100 µM for the second.

`S=C(Cc1ccc2c(c1)Sc1ccccc1O2)N1CCOCC1` and `Cc1c(N2CCOCC2)nc2ccc(Cl)cc2c1-c1ccccc1` cannot be ordered by TGI: over 100 µM for the first, over 100 µM for the second.

`c1ccc2c(c1)SCCCS2` and `NCCN1CCCCCc2ccccc21` cannot be ordered by TGI: over 100 µM for the first, over 10 µM for the second.

First: COc1ccc2c(c1)c1c(n2CCN2CCCCC2)-c2cccc(OC)c2CC1
Second: COc1cc2nc(-c3ccc(Cl)cc3)cc(OCCCN3CCOCC3)c2cc1OC
The TGI of the first is lower: 32.3 µM for the first, over 100 µM for the second.

`O=[N+]([O-])c1ccc(C[P+]2(c3ccccc3)CCCCC2)cc1` and `CN(/N=C1\C(=O)Nc2ccccc21)c1ccccc1` cannot be ordered by TGI: over 100 µM for the first, over 100 µM for the second.

First: Cn1nc(-c2ccc(S(=O)(=O)/N=C(\NN)Nc3ccc(Cl)cc3)s2)cc1C(F)(F)F
Second: COc1ccc(CNc2cnc3ccc(N)cc3n2)cc1
The TGI of the first is lower: 43 µM for the first, over 100 µM for the second.

`C[C@]12CCC3[C@@H](CCC45OC4C(=O)CC[C@]35C)C1Cc1cnn(-c3ccc(F)cc3)c1N2` (some centres not stated) and `COCOc1ccc(C(=O)Oc2cccc3c2OC(C)(C)O3)c(OCOC)c1` cannot be ordered by TGI: over 100 µM for the first, over 100 µM for the second.

`COc1cc(C)c(CC/C(C)=C/Cc2cc(O)ccc2O)c(C)c1C` and `COc1cc2ccc3c4cc(OC)c(OC)cc4c[n+](C)c3c2cc1O` cannot be ordered by TGI: over 25 µM for the first, over 100 µM for the second.

Compared with `c1ccc(-c2c(-c3ccccc3)[n+](Cc3ccc4ccccc4c3)c(-c3ccc(-c4nc5ccccc5s4)cc3)n2Cc2ccc3ccccc3c2)cc1`, `CN(C)CCNC(=O)c1cccc2c1Nc1ccccc1S2` is 27-fold higher in TGI: 1.12 µM for the first, 30.2 µM for the second.

`c1c[nH]c(-c2cccc3nsnc23)c1` and `Cc1cc([N+](=O)[O-])c(C)c2c1[nH]c1ccc(Cl)cc12` cannot be ordered by TGI: over 100 µM for the first, over 100 µM for the second.

Going from `CN(CCN1CCCC1)C1CCc2cc(Cl)c(Cl)cc2C1` (configuration not stated) to `CO/N=C1\CC(NC(=O)C(F)(F)F)c2ccsc21` (configuration not stated), the TGI rises from 30.8 µM to over 100 µM.

First: COC(=O)/C=C(\C)CC/C=C(\C)CCC1OC1(C)C (configuration not stated)
Second: CCOC(=O)/C=C/c1nc(C#N)c(N)o1
The TGI of the first is lower: 25.7 µM for the first, over 100 µM for the second.

First: CC(=O)NNc1nc(C)c(C(=O)NNC(=O)C(=O)Nc2ccc([N+](=O)[O-])cc2[N+](=O)[O-])s1
Second: COc1cccc(C2c3cc4c(cc3OC(O)C2C)OCO4)c1OC (configuration not stated)
The TGI of the first is higher: over 100 µM for the first, 18.7 µM for the second.

In order of falling GI50:
1. COc1cc2nc(-c3ccc(Cl)cc3)cc(OCCCN3CCOCC3)c2cc1OC  2.15 µM
2. c1ccc(-c2c(-c3ccccc3)[n+](Cc3ccc4ccccc4c3)c(-c3ccc(-c4nc5ccccc5s4)cc3)n2Cc2ccc3ccccc3c2)cc1  0.151 µM

The compounds below were run on SK-MEL-5 melanoma (assay: growth of human tumour cells (NCI), 48 h).

`COc1ccc2ccc3oc(=O)c(C)cc3c2c1` and `COc1ccc(C2Oc3ccc(Cl)cc3C=C2[N+](=O)[O-])cc1` (configuration not stated) cannot be ordered by TGI: over 100 µM for the first, over 100 µM for the second.

`CN(C)c1nc(Oc2nc(N(C)C)nc(N(C)C)n2)nc(N(C)C)n1` and `Cc1ccccc1-c1nc2c(N)nc(N)nc2nc1N` cannot be ordered by TGI: over 100 µM for the first, over 100 µM for the second.

First: CCCCCCCC(=O)OCC(COC(=O)C(C)(C)C)OC(=O)Cc1ccccc1 (configuration not stated)
Second: COC(=O)CC(=O)OSc1ccccc1
The TGI of the first is higher: over 100 µM for the first, 87.9 µM for the second.

`Cc1nnc2n(c1=O)CCCN2C` and `CC1CC(N2CCOCC2)=Nc2ccccc2N1C` (configuration not stated) cannot be ordered by TGI: over 100 µM for the first, over 100 µM for the second.

`Nc1ncnc2c1nnn2C1C=CC(CP(=O)(O)O)C1` (configuration not stated) and `O=c1[nH]c(NCc2ccncc2)nc2nc[nH]c12` cannot be ordered by TGI: over 100 µM for the first, over 100 µM for the second.

First: CN(C)CCn1c(=O)c2ccc(NCCCN(C)CCCNc3ccc4c(=O)n(CCN(C)C)c(=O)n5c6ccc(O)cc6c(=O)c3c45)c3c(=O)c4cc(O)ccc4n(c1=O)c23
Second: CN(C)C(=O)C(F)(F)C(c1ccc(F)cc1)C1C(=O)N(C)C(=O)N(C)C1=O (configuration not stated)
The TGI of the first is lower: 0.171 µM for the first, over 100 µM for the second.

`c1ccc2c(c1)SCCCS2` and `NCCN1CCCCCc2ccccc21` cannot be ordered by TGI: over 100 µM for the first, over 10 µM for the second.

First: COc1ccc2c(c1)c1c(n2CCN2CCCCC2)-c2cccc(OC)c2CC1
Second: CN(CCN1CCCC1)C1CCc2cc(Cl)c(Cl)cc2C1 (configuration not stated)
The TGI of the first is 1.8-fold higher: 45.5 µM for the first, 24.8 µM for the second.

`O=[N+]([O-])c1ccc(C[P+]2(c3ccccc3)CCCCC2)cc1` and `CN(/N=C1\C(=O)Nc2ccccc21)c1ccccc1` cannot be ordered by TGI: over 100 µM for the first, over 100 µM for the second.

Going from `Cn1nc(-c2ccc(S(=O)(=O)/N=C(\NN)Nc3ccc(Cl)cc3)s2)cc1C(F)(F)F` to `Cc1c(N2CCOCC2)nc2ccc(Cl)cc2c1-c1ccccc1`, the TGI rises from 35.9 µM to 65.7 µM (1.8-fold).

`C[C@]12CCC3[C@@H](CCC45OC4C(=O)CC[C@]35C)C1Cc1cnn(-c3ccc(F)cc3)c1N2` (some centres not stated) and `COCOc1ccc(C(=O)Oc2cccc3c2OC(C)(C)O3)c(OCOC)c1` cannot be ordered by TGI: over 100 µM for the first, over 100 µM for the second.

`COc1cc(C)c(CC/C(C)=C/Cc2cc(O)ccc2O)c(C)c1C` and `COc1cc2ccc3c4cc(OC)c(OC)cc4c[n+](C)c3c2cc1O` cannot be ordered by TGI: over 25 µM for the first, over 100 µM for the second.

Compared with `c1c[nH]c(-c2cccc3nsnc23)c1`, `CN(C)CCNC(=O)c1cccc2c1Nc1ccccc1S2` is lower in TGI: over 100 µM for the first, 26.3 µM for the second.

`Cc1cc([N+](=O)[O-])c(C)c2c1[nH]c1ccc(Cl)cc12` and `CC(=O)NNc1nc(C)c(C(=O)NNC(=O)C(=O)Nc2ccc([N+](=O)[O-])cc2[N+](=O)[O-])s1` cannot be ordered by TGI: over 100 µM for the first, over 100 µM for the second.

`CO/N=C1\CC(NC(=O)C(F)(F)F)c2ccsc21` (configuration not stated) and `CCOC(=O)C1C(c2ccc(Cl)cc2Cl)NC(c2ccc(C)cc2)C(C(=O)OC)S1(=O)=O` (configuration not stated) cannot be ordered by TGI: over 100 µM for the first, over 100 µM for the second.

Going from `COC(=O)/C=C(\C)CC/C=C(\C)CCC1OC1(C)C` (configuration not stated) to `CCOC(=O)/C=C/c1nc(C#N)c(N)o1`, the TGI rises from 22.4 µM to over 100 µM.

Going from `COc1ccc(CNc2cnc3ccc(N)cc3n2)cc1` to `COc1cccc(C2c3cc4c(cc3OC(O)C2C)OCO4)c1OC` (configuration not stated), the TGI falls from over 100 µM to 21.8 µM.
